Test results as given in patent US20260364210A1, “COMPOSITIONS AND METHODS FOR TRANSGLUTAMINASE-MEDIATED ENDOCYTOSIS” (The Board of Trustees of the Leland Stanford Junior …, priority 2022, published 2026).
Residues, ends and D or L forms follow the SMILES beside them.

What was measured:
[1] = tested on: streptavidin; experiment: Endocytosis of fluorescent streptavidin by NRK cells; type: cell-based, rat
Protocol: FIG. 11: (A) Treating NRK cells with increasing concentrations of HB-3-003 in the presence of fluorescently tagged streptavidin leads to increased internalization of streptavidin after a 90 min treatment. (B) Quantification of dose response.
In order to determine the ability of this pathway to clear specifically targeted proteins from the extracellular environment, we synthesized a pentapeptide harboring the electrophilic warhead and a PEG-4 biotin conjugated to the DAB substituted Y amino acid (HB2110). Streptavidin is expected to bind to the biotin arm of the probe, and thus be endocytosed along with the rest of the complex as previously described. To test this hypothesis NRK cells were treated with 2 μM HB2110 and 1 μM Cy5-conjugated streptavidin.
We also synthesized the equivalent pentapeptide harbouring a Gln residue in the place of the electrophilic warhead, with biotin conjugated to the DAB substituted Y amino acid through a PEG linker (HB3-3). We then assed the ability of cells to endocytose fluorescent streptavidin in the presence of HB3-3 and α2M.

[2] = tested on: TG2; settings: role: inhibitor; absence of active site occupancy; Palanski and Khosla, 2018; cited from earlier work
[3] = tested on: α2M; experiment: Internalization of fluorescently labeled α2M by NRK cells in the presence of unlabeled TG2 inhibitors; type: cell-based, rat; settings: 100 μM cystamine by itself
Protocol: FIG. 5A-5C: (A) HB-225 induces a dose dependent uptake of fluorescently tagged α2M.
To identify the conformational requirements for high-affinity recognition of TG2 by α2M, fluorescently labeled α2M was added to NRK cell cultures in the presence of different (unlabeled) TG2 inhibitors.

[4] = tested on: clathrin mediated endocytosis; experiment: Inhibition of α2M / 33-mer endocytosis by inhibitors of clathrin mediated endocytosis in NRK cells; type: cell-based, rat
Description: FIG. 7A-7D: (A) Endocytosis of α2M (green) and 33 mer gluten peptide (red) by NRK cells.
Low density lipoprotein (LDL) receptor-related protein 1 (LRP-1, a.k.a., (α2M receptor or CD91), a member of the LDL receptor family, is responsible for receptor-mediated endocytosis of α2M. Although this receptor is expressed on the surface of a wide range of cell types within the body, α2M endocytosis by LRP-1 is only triggered when this ubiquitous plasma protein undergoes a conformational change upon binding to its protease or non-protease ligands (Bres and Faissner, 2019). We sought to establish whether endocytosis of the ternary α2M-TG2-peptide complex was mediated by LRP-1 using pharmacologic inhibitors of clathrin mediated endocytosis.

[5] = target: T1, human TG2 (Homo sapiens, UniProt P21980); experiment: Steady-state kinetic analysis / TG2 inhibition; type: biochemical; settings: role: inhibitor, substrate PQLPF and inhibitor concentrations varied
T1 sequence (P21980 1-687): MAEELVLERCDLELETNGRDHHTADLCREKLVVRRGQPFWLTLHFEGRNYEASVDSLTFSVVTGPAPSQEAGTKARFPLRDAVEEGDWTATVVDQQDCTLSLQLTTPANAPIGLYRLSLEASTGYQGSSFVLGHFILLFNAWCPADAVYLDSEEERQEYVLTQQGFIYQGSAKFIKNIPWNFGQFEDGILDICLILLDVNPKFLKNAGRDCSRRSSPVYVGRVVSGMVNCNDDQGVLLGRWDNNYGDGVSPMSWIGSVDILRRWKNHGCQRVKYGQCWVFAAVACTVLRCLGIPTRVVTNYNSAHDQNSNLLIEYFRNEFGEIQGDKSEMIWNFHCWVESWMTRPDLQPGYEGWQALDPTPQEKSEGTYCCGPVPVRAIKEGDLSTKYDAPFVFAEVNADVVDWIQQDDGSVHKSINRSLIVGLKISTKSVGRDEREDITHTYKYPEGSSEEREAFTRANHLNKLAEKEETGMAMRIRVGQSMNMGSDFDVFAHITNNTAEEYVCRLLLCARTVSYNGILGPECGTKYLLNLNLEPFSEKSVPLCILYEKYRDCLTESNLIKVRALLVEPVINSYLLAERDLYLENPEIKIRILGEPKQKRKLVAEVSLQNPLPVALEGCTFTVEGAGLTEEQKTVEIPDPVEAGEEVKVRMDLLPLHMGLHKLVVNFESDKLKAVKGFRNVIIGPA
Description: FIG. 1: Kinetic analysis of TG2 inhibition by HB-225. Both substrate (PQLPF) and inhibitor concentrations were varied.
FIG. 2: Comparison of TG2 inhibition by HB-225 and HB-230. The two compounds have very similar kinetic properties.
Encouraged by this finding, we went on to design and synthesize our target fluorescent probe, HB230, in which a second unnatural amino acid residue, diaminobutyrate (DAB), was installed in place of Leu (L) in HB225. This residue was also predicted to neither be recognized by TG2 nor HLA-DQ2. Attachment of a Sulfo-Cy5 fluorophore via amide linkage to the DAB residue yielded the desired probe.

[6] = tested on: normal rat kidney (NRK) cells; experiment: Uptake of fluorescent probe by NRK cells with or without α2M; type: cell-based
Description: (C) Fluorescently tagged α2M colocalizes strongly with HB-230.
FIG. 15. Uptake of HB-2121.
Puncta of two distinct sizes were observed.
To verify that HB230 internalization was dependent on TG2 activity, HB258 was designed and synthesized as a control probe. This dihydro-analog is otherwise identical to HB230 but lacks its electrophilic warhead and is therefore unable to irreversibly bond to the active site C277 residue of TG2.

[7] = tested on: NRK cells; experiment: Intracellular payload (Cy5) release in NRK cells with or without cathepsin B inhibitor; type: cell-based, rat
Protocol: FIG. 13A-13B: (A) HB-2108 is strongly endocytosed and cleaved leading to diffuse staining, (B) Inhibiting Cathepsin B mitigates diffuse pattern.
We synthesized HB2108, by linking AcPQLPF to Cy5 via a cathepsin-labile valine-citrulline linker. NRK cells were then treated with HB2108 and α2M in the presence and absence of a cathepsin B inhibitor.

[8] = tested on: carboxypeptidase; experiment: Metabolism by carboxypeptidase; type: in vitro ADME; settings: role: substrate, subsequent to chymotrypsin
Description: (§1) FIGS. 14A-14B. Metabolic stability of HB-230 and HB-2121. (A) HB-230 is transformed by chymotrypsin to give the C-terminal carboxylic acid. This metabolite is subsequently cleaved by carboxypeptidase to give the tetrapeptide without the terminal phenylalanine. (B) HB-2121 is stable to both chymotrypsin and carboxypeptidase mediated metabolism.
(§2) HB-2121 is analogous to the TG2 inhibitor/probe HB-230 but with one modification; the primary amide C-terminus of HB-230 was replaced with a tertiary dimethyl amide. This change greatly enhances the gastrointestinal stability of the probe.

[9] = tested on: chymotrypsin; experiment: Metabolism by chymotrypsin; type: in vitro ADME; settings: role: substrate
Description: as §1, §2

[10] = tested on: NRK cells; experiment: Co-localized endocytosis of Sulfo-Cy5 33-mer gluten peptide and fluorescent α2M in NRK cells; type: cell-based, rat; settings: Sulfo-Cy5-tagged 33 mer; compared with α2M and HB230
Protocol: FIGS. 6A-6B: Fluorescently tagged 33 mer peptide (A) induces a similar pattern of internalization of α2M as HB-230 (B).
Thus far, endocytosis of the TG2-α2M complex had exclusively been visualized using peptidic probes that irreversibly label the active site of TG2. To investigate whether transient enzyme-substrate complexes can be efficiently internalized in an α2M-dependent manner, NRK cells were co-incubated with fluorescent α2M and the aforementioned 33-residue gluten peptide (33 mer) tagged with a Sulfo-Cy5 fluorophore.

[11] = tested on: cubilin; experiment: Depletion of cell surface cubilin on NRK cells; type: cell-based, rat
Protocol: FIG. 12A-12C: (A) Treating NRK cells with increasing concentrations of HB-3-002 leads to decrease of cell membrane cubilin after a 90 min treatment. (B) Quantification of dose response.
Cell surface proteins can also be pharmacological targets. Thus we targeted cubilin, the canonical receptor for the intrinsic factor (IF)-vitamin B12 complex. We synthesized a pentapeptide harbouring a Gln residue in the X position, and vitamin B12 conjugated to the DAB substituted Y amino acid through a PEG-5 linker (HB3-2). […] Cubilin is stained using a sheep anti cubilin antibody which recognizes rat cubilin and an ovine Alexa-647 secondary antibody.

[12] = high concentrations of both the probe and α2M

O=C(O)CCCC[C@@H]1SC[C@@H]2NC(=O)N[C@@H]21 [Biotin, reference compound]
uptake of streptavidin by individual components ([1]; component alone, NRK cells): do not lead to increased uptake of streptavidin

NCCSSCCN [Cystamine, cystamine]
inactivation of TG2 [2]: inactivates TG2 by promoting C370-C371 disulfide bond formation
internalization of fluorescent α2M [3]: unable to promote rapid internalization of fluorescent α2M by itself

O=C(N/N=C/c1cc(O)c(O)cc1O)c1cc2ccccc2cc1O [Dyno-4a]
inhibition of α2M and peptide colocalization as large endocytic puncta ([4]; 20 uM Dyno-4a): strong inhibition

CC(=O)N1CCC[C@H]1C(=O)N[C@@H](CCC(N)=O)C(=O)N[C@@H](CCC(=O)NCCOCCOCCNC(=O)CCCC[C@@H]1SC[C@@H]2NC(=O)N[C@@H]21)C(=O)N1CCC[C@H]1C(=O)N[C@@H](Cc1ccccc1)C(N)=O [HB-3-003] (HELM PEPTIDE1{[ac].P.Q.E.P.F.[am]}|CHEM1{[O=C(CCCC[C@@H]1SC[C@@H]2NC(=O)N[C@@H]21)NCCOCCOCCN[*:1]]}$PEPTIDE1,CHEM1,4:R3-1:R1$$$V2.0)
endocytosis of fluorescent streptavidin ([1]; presence of α2M, 90 min): endocytosed in an HB3-3 dose dependent manner

CC(=O)N1CCC[C@H]1C(=O)N[C@@H](CC/C=C/C(=O)N(C)C)C(=O)N[C@@H](CC(C)C)C(=O)N1CCC[C@H]1C(=O)N[C@@H](Cc1ccccc1)C(N)=O [HB-225] (HELM PEPTIDE1{[ac].P.[CN(C)C(=O)/C=C/CC[C@H](N[*:1])C(=O)[*:2]].L.P.F.[am]}$$$$V2.0)
Ki [5]: 13 µM
kinact ([5]; read-out: ki (inactivation of TG2) (converted)): 0.000833 s⁻¹

CC(=O)N1CCC[C@H]1C(=O)N[C@@H](CCCCC(=O)N(C)C)C(=O)N[C@@H](CCNC(=O)CCCCC[N+]1=C(/C=C/C=C/C=C2/N(C)c3ccc(S(=O)(=O)O)cc3C2(C)C)C(C)(C)c2cc(S(=O)(=O)[O-])ccc21)C(=O)N1CCC[C@H]1C(=O)N[C@@H](Cc1ccccc1)C(N)=O [HB-258]
appearance of intracellular puncta [6, 12]: only appears as small intracellular puncta
uptake by NRK cells (probe without electrophilic warhead) [6, 12]: does not undergo significant uptake by NRK cells

CC(=O)N1CCC[C@H]1C(=O)N[C@@H](CCC(N)=O)C(=O)N[C@@H](CC(C)C)C(=O)N1CCC[C@H]1C(=O)N[C@@H](Cc1ccccc1)C(=O)N[C@H](C(=O)N[C@@H](CCCNC(N)=O)C(=O)NCCCCCCNC(=O)CCCCC[N+]1=C(/C=C/C=C/C=C2/N(C)c3ccccc3C2(C)C)C(C)(C)c2ccccc21)C(C)C [HB-2108] (HELM PEPTIDE1{[ac].P.Q.L.P.F.V.[Cit].[CN1/C(=C/C=C/C=C/C2=[N+](CCCCCC(=O)NCCCCCCN[*:1])c3ccccc3C2(C)C)C(C)(C)c2ccccc21]}$$$$V2.0)
Cy5 staining / colocalization with α2M ([7]; absence of cathepsin B inhibitor): very diffuse and no longer colocalizes with α2M
Cy5 staining / colocalization with α2M ([7]; pre-treatment with cathepsin inhibitor): remains strongly colocalized with α2M in the lysosome

CC(=O)N1CCC[C@H]1C(=O)N[C@@H](CC/C=C/C(=O)N(C)C)C(=O)N[C@@H](CCNC(=O)CCCCC[N+]1=C(/C=C/C=C/C=C2/N(C)c3ccc(S(=O)(=O)O)cc3C2(C)C)C(C)(C)c2cc(S(=O)(=O)[O-])ccc21)C(=O)N1CCC[C@H]1C(=O)N[C@@H](Cc1ccccc1)C(=O)N(C)C [HB-2121]
metabolism by carboxypeptidase [8]: no subsequent metabolism
metabolism by chymotrypsin [9]: complete resistance to metabolism
uptake by NRK cells with or without α-2-macroglobulin ([6]; 2 μM HB-2121, with or without 100 μg/mL α-2-macroglobulin): α2M-enhanced endocytic uptake

O=C1N=C(NS(=O)(=O)c2cccc3ccccc23)S/C1=C\c1ccc(Br)cc1 [Pitstop-2]
inhibition of α2M and peptide colocalization as large endocytic puncta ([4]; 25 uM Pitstop): strong inhibition

LQLQPFPQPQLPYPQPQLPYPQPQLPYPQPQPF [33 mer, 33-residue gluten peptide tagged with a Sulfo-Cy5 fluorophore]
co-localized endocytosis with fluorescent α2M [10]: entirely analogous pattern of co-localized endocytosis

methyl-β-cyclodextrin
inhibition of α2M and peptide colocalization as large endocytic puncta ([4]; 12.5 mM MβCD): strong inhibition

vitamin B12 [reference compound]
depletion of cubilin by individual components ([11]; component alone): do not promote the depletion of cubilin

B1: RAP: inhibitor of LRP-1 (protein, UniProt P30533 35-357, looked up)
Alpha-2-macroglobulin …: YSREKNQPKPSPKRESGEEFRMEKLNQLWEKAQRLHLPPVRLAELHADLKIQERDELAWKKLKLDGLDEDGEKEARLIRNLNVILAKYGLDGKKDARQVTSNSLSGTQEDGLDDPRLEKLWHKAKTSGKFSGEELDKLWREFLHHKEKVHEYNVLLETLSRTEEIHENVISPSDLSDIKGSVLHSRHTELKEKLRSINQGLDRLRRVSHQGYSTEAEFEEPRVIDLWDLAQSANLTDKELEAFREELKHFEAKIEKHNHYQKQLEIAHEKLRHAESVGDGERVSRSREKHALLEGRTKELGYTVKKHLQDLSGRISRARHNEL
effect of LRP-1 inhibition on depletion of surface cubilin ([11]; LRP-1 inhibited through RAP, HB3-2 with intrinsic factor): mitigates the depletion of surface cubilin
